Activity calls are given as the source filed them. No cut-off for these calls is given here.
Key:
Mus musculus [1] = test: Antiinflammatory activity in C3H mouse model of thioglycollate-induced lymphocyte recruitment assessed as decrease in blood macrophages at 30 mg/kg, po dosed 15 mins before thioglycollate stimulation by Beckman Coulter counting based cell counting method relative to untreated control; format: functional; set-up: scale not given: the % may be the effect or the level left
Mus musculus [2] = test: Antiinflammatory activity in C3H mouse model of thioglycollate-induced lymphocyte recruitment assessed as decrease in blood lymphocytes at 30 mg/kg, po dosed 15 mins before thioglycollate stimulation by Beckman Coulter counting based cell counting method relative to untreated control; format: functional; set-up: scale not given: the % may be the effect or the level left
Mus musculus [3] = test: Antiinflammatory activity in C3H mouse model of thioglycollate-induced lymphocyte recruitment assessed as decrease in blood neutrophils at 30 mg/kg, po dosed 15 mins before thioglycollate stimulation by Beckman Coulter counting based cell counting method relative to untreated control; format: functional; set-up: scale not given: the % may be the effect or the level left
Mus musculus [4] = test: Reduction in colon weight in Balb/c mouse model of dextran sodium sulfate-induced ulcerative colitis at 100 mg/kg, po dosed twice daily at days 3,4, 5 and 6 after the induction of the ulcerative colitis and measured 7 days post ulcerative colitis induction; format: functional; set-up: scale not given: the % may be the effect or the level left
Mus musculus [5] = test: Reduction in colon weight in Balb/c mouse model of dextran sodium sulfate-induced ulcerative colitis at 30 mg/kg, po dosed twice daily at days 3,4, 5 and 6 after the induction of the ulcerative colitis and measured 7 days post ulcerative colitis induction; format: functional; set-up: scale not given: the % may be the effect or the level left
Mus musculus [6] = test: Reduction in splenomegaly in Balb/c mouse model of dextran sodium sulfate-induced ulcerative colitis at 100 mg/kg, po dosed twice daily at days 3,4, 5 and 6 after the induction of the ulcerative colitis and measured 7 days post ulcerative colitis induction; format: functional; set-up: scale not given: the % may be the effect or the level left
Mus musculus [7] = test: Reduction in colon weight in Balb/c mouse model of dextran sodium sulfate-induced ulcerative colitis at 10 mg/kg, po dosed twice daily at days 3,4, 5 and 6 after the induction of the ulcerative colitis and measured 7 days post ulcerative colitis induction; format: functional; set-up: scale not given: the % may be the effect or the level left
Mus musculus [8] = test: Reduction in splenomegaly in Balb/c mouse model of dextran sodium sulfate-induced ulcerative colitis at 30 mg/kg, po dosed twice daily at days 3,4, 5 and 6 after the induction of the ulcerative colitis and measured 7 days post ulcerative colitis induction; format: functional; set-up: scale not given: the % may be the effect or the level left
Mus musculus [9] = test: Reduction in body weight loss in Balb/c mouse model of dextran sodium sulfate-induced ulcerative colitis at 10 to 100 mg/kg, po dosed twice daily at days 3,4, 5 and 6 after the induction of the ulcerative colitis and measured 7 days post ulcerative colitis induction; format: functional, organism-based

Row | Structure (SMILES) | Activity (Mus musculus [1]) [%] | Activity (Mus musculus [2]) [%] | Activity (Mus musculus [3]) [%] | Activity (Mus musculus [4]) [%] | Activity (Mus musculus [5]) [%] | Activity (Mus musculus [6]) [%] | Activity (Mus musculus [7]) [%] | Activity (Mus musculus [8]) [%] | Activity (Mus musculus [9])
1 | CCCCCCN(Cc1ccc(C#Cc2ccc(C(C)(C)C)cc2)cc1)c1ccc(F)c(C(=O)O)c1 | 42 | 13 | 36 | – | – | – | – | – | –
2 | CCCCCCN(Cc1ccc(F)c(C(=O)O)c1)c1ccc(C#Cc2ccc(CCCC)cc2)cc1 | 32 | 8 | 28 | – | – | – | – | – | –
3 | CCCCCCc1ccc(C#Cc2ccc(CN(Cc3ccc(C(F)(F)F)cc3)C(=O)C(=O)O)cc2)cc1 | 27 | 29 | 27 | – | – | – | – | – | –
4 | O=C(O)C(=O)N(Cc1ccc(C#CCCCCCCCCCF)cc1)Cc1ccc(C(F)(F)F)cc1 | 36 | 24 | 16 | – | – | – | – | – | –
5 | CCCCc1ccc(C#Cc2ccc(CN(CC3CCCC3)c3ccc(F)c(C(=O)O)c3)cc2)cc1 | 37 | 23 | 36 | – | – | – | – | – | –
6 | CCCCCCN(Cc1ccc(C#Cc2ccc(CCCC)cc2)cc1)c1ccc(O)c(C(=O)O)c1 | 50 | 47 | 44 | -35 | -28 | -65 | -22 | -31 | –
7 | CCCCCCN(Cc1ccc(C#Cc2ccc(CCC)cc2)cc1)c1ccc(F)c(C(=O)O)c1 | 26 | 4 | -6 | – | – | – | – | – | –
8 | CCCCCCN(Cc1ccc(C#Cc2ccc(CCCC)cc2)cc1)C(=O)c1ccc(O)c(C(=O)O)c1 | 62 | 41 | 41 | – | – | – | – | – | –
9 | CCCCCCN(Cc1ccc(C#Cc2ccc(CCCC)cc2)cc1)c1ccc(C(=O)O)c(O)c1 | 65 | 23 | 45 | – | – | – | – | – | –
10 | CCCCCCc1ccc(C#Cc2ccc(N(Cc3ccc(C(F)(F)F)cc3)C(=O)C(=O)O)cc2)cc1 | 32 | 21 | 15 | – | – | – | – | – | –
11 | CCCCCCc1ccc(C#Cc2ccc(CN(C(=O)C(=O)O)C(C)(C)c3cccc(Cl)c3)cc2)cc1 | 52 | 39 | 25 | – | – | – | – | – | –
12 | CCCCCCN(Cc1ccccc1C#Cc1ccc(CCCC)cc1)C(=O)c1ccc(O)c(C(=O)O)c1 | – | – | – | – | -50 | -45 | -47 | -25 | Active

— ChEMBL document CHEMBL3991941, “GLEPP-1 inhibitors in the treatment of autoimmune and/or inflammatory disorders” (2011)
